According to US20220395487A1, “RIG-I INNATE IMMUNE RECEPTOR ANTAGONISTS AND METHODS OF USING SAME” (YALE UNIVERSITY, priority 2019, published 2022):

Tests used:
RIG-I [1] = target: T1, RIG-I (Homo sapiens, UniProt O95786); assay: NADH-coupled ATPase assay; type: biochemical; design: The native, full-length protein was expressed and purified using methods adapted from published protocols; SUMO (pET-SUMO vector; captured on Ni-NTA) (N, cleaved yes); made in house; host or cells: Rosetta II(DE3) Escherichia coli
T1 sequence (O95786 1-925): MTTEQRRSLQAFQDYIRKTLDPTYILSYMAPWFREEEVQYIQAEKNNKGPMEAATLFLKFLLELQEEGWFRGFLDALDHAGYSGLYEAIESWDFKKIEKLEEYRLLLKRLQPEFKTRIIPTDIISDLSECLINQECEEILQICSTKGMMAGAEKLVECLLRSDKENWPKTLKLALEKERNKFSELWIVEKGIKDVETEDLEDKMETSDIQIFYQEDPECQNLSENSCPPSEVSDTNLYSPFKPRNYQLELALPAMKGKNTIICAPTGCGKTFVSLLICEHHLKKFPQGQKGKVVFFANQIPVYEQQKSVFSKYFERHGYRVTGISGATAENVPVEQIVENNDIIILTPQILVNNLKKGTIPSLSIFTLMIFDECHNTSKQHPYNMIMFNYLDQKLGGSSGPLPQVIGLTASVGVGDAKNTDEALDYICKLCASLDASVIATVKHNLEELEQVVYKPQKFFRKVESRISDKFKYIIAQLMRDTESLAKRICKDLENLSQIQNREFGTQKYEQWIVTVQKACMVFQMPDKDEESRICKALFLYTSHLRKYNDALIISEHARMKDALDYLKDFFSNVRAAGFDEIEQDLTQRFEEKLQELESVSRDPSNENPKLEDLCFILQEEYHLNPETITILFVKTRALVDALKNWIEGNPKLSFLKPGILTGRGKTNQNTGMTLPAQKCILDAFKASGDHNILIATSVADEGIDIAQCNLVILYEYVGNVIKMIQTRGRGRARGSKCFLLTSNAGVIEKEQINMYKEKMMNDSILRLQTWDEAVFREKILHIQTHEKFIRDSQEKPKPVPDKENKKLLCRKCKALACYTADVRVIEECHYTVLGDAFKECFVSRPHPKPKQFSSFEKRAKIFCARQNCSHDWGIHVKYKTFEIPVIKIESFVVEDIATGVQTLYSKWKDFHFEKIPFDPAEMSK
Procedure: In this case, RIG-I was activated by a well-defined synthetic RNA hairpin duplex (SLR10-OH), which was added to a final concentration of 250 nM. A coupled assay mixture consisting of 1 mM NADH, 100 U/ml lactic dehydrogenase, 500 U/ml pyruvate kinase, 2.5 mM phosphoenol pyruvic acid was added to the sample. A 12-point serial dilution of the compound of interest was added in a DMSO vehicle such that DMSO concentrations were kept at a constant 2% over the entire drug dilution. The final concentration ranges for drug dilutions varied from compound to compound based on the potency of the small molecule in question. The dilutions covered ranges from 0 to as high as 100 μM (see association figures). Samples were incubated for at least 1 hour at RT. Reactions were initiated by the addition of a 1:1 ATP/MgCl2 mix to a final concentration of 5 mM.
The rate of ATP hydrolysis was determined indirectly by monitoring the conversion of NADH to NAD^+ that results in a loss of sample absorbance at 340 nm. Absorbance was measured over a 20 min time course using a sweeping read at 10 second intervals and a gain setting of 120 on a Biotek Synergy H1 Plate Reader. Mean kobs values were extrapolated for each time course and plotted against drug concentration, then fit to Eq. (1) to determine IC50 values. Each point was a based on two trials of three biological replicates with error bars representing the Standard deviation.

A549 cells = assay: qRT-PCR of metabolism and stress marker genes (ACTB, GAPDH, p21, BAX) in A549 cells; type: cell-based, human; details: p21, BAX by qRT-PCR
Procedure: (§1) In the second assay, inhibition of RIG-I that is endogenously expressed in A549 cells was evaluated by monitoring IFN and ISG levels by qRT-PCR. A549 cells were propagated in T75 flasks containing Dulbecco's Modified Eagle Medium, DMEM, (Life Technologies) supplemented with 10% heat-inactivated fetal bovine serum (Hyclone) and Non-Essential Amino Acids (Life Technologies). For the assay, 0.5 ml of cells at 100,000 cells/ml was seeded in 24-well plates. After 24 h, DMEM growth media was replaced with media containing drug, as described above for the IFN induction assay using HEK293T cells. After 30 minutes, the cells were transfected with 1 μg of the synthetic stem-loop RNA (SLR14), using the Lipofectamine 2000 transfection reagent. After 5-6 hours, cells were harvested and total RNA was isolated using E.Z.N.A total RNA isolation kit (Omega Bio-tek), following the manufacturer's instructions. […] Each sample was analyzed in triplicate and normalized to HPRT expression. Gene expression quantification was performed according to the Livak ΔΔCt method.
These experiments were consistent with a target-specific response to the compounds. […] To evaluate interference with cell growth or viability, genes that represent markers of cell metabolism and stress response (ACTB, GAPDH, p21, BAX) were also simultaneously monitored. […]

RIG-I [2] = target: T1, RIG-I; assay: qRT-PCR of IFN and ISG levels in A549 cells with endogenous RIG-I; type: cell-based; details: SLR14 challenge, qRT-PCR normalized to HPRT
Procedure: as §1, with “instructions. Genomic DNA contamination was removed by DNase I treatment (Omega Bio-tek) directly on the Mini column. Total RNA was reverse-transcribed into cDNA using iScript Reverse Transcription Supermix (Bio-RAD) according to the manufacturer's instructions.” for “instructions.”

Structure (SMILES): CCC1(CC)C(=O)N=C2C1=C(OCc1ccccc1)C(=O)c1ccccc12 [RIG012, 4-Benzyloxy-3,3-diethyl-2H,3H,5H-benzo[g]indole-2,5-dione]
- IC50 (RIG-I [1]; NADH-coupled ATPase assay, SLR10-OH activated, mean ± standard deviation, 3 measurements, read-out: IC50): 710 ± 20 nM
- RIG-I ATPase inhibition, result in words (RIG-I [1]; SAR discussion of Table 1 compounds): nanomolar IC50 values
- expression of genes involved in cell viability and metabolism (A549 cells): unaffected
- effect on IFN-β and ISG hRsad2 expression (RIG-I [2]): potent, dose-dependent effect
